Measured values as given in a melting point compilation (Tetko et al.; mined from patent text by program, amines drawn as free bases though some values may be those of a salt).

First: Cc1nc(-c2ccc(OCc3cccc(Cl)c3)cc2)no1
Second: O=C(c1ccc(O)c(Cl)c1Cl)c1ccnn1Cc1ccccc1
The melting point of the first is lower: 96 to 98 °C for the first, 131 to 133 °C for the second.

First: O=C(Nc1ccc(F)cc1)N1CCCCN1
Second: Cc1ccc(S(=O)(=O)N2CCC[C@H]2C(=O)N[C@@H](Cc2ccc(NC(=O)C3CCNCC3)cc2)C(=O)O)cc1
The melting point of the first is lower: 78.5 to 79.5 °C for the first, 125 to 128 °C for the second.

Compared with `Cc1cc(C)c2c(c1)C(Nc1ncnc(N)n1)CCC2` (stereo not given), `Cc1ccc(S(=O)(=O)N2CCCC2c2ccc(Cl)c(C)c2)cc1` (racemic) is lower in melting point: 178 to 180 °C for the first, 103 °C for the second.

First: O=C(O)c1nn(CCCCCCl)c2c1CCc1cc(Cl)sc1-2
Second: Cc1c(Cc2cc(Cl)cc(Cl)c2)c(C(=O)O)nn1CCO
The melting point of the first is lower: 205 to 208 °C for the first, 241 to 242 °C for the second.

First: COc1ccc(C(=O)NCc2ccc(CNC(=O)c3ccc(OC)cc3)cc2)cc1
Second: CC(C)(C)OC(=O)CCNC(=O)c1cccc(NC(=O)c2csc(NC(=O)NCc3ccccc3)n2)c1
The melting point of the first is higher: 249 to 250 °C for the first, 212 °C for the second.

First: CC(C)(C)OC(=O)N[C@@H](C(=O)O)C1(C)CCCCC1
Second: CCCCNC(=O)[C@H](C)C[C@H](O)[C@H](CC1CCCCC1)NC(=O)[C@H](Cc1cscn1)NC(=O)OC(C)(C)C
The melting point of the first is lower: 127 to 130 °C for the first, 172 to 174 °C for the second.

First: CCOC(=O)Cn1c(C(=O)NCc2nnc3n2-c2sc(CC)cc2C(c2ccccc2Cl)=NC3)cc2ccccc21
Second: C=CCc1c(OCc2ccc3ccccc3n2)ccc2c1c(SC(C)(C)C)c(CC(C)(C)C(=O)O)n2Cc1ccc(Cl)cc1
The melting point of the first is higher: 215 to 217 °C for the first, 103 to 105 °C for the second.

`CCN(CC)CCOc1ccc(Nc2ncc3c(n2)N(c2cccc(CCN(C)C)c2)C(=O)N(c2ccc(Cl)cc2Cl)C3)cc1` and `CCCCOc1cc(CCS(=O)(=O)NC(=O)OCCC)n(Cc2ccc(Cl)cc2Cl)n1` cannot be ordered by melting point: 92 °C for the first, 92 to 94 °C for the second.

First: OC(c1cc2ccccc2s1)C1CCN(CCc2ccccc2)CC1 (stereo not given)
Second: CCCn1cc(-c2ccccc2)c(=O)c(-c2ccccc2)n1
The melting point of the first is higher: 178 °C for the first, 94 to 96 °C for the second.

First: CCOc1nn(-c2ccc(C(F)(F)F)cn2)cc1CCCOc1cccc(C(C)(C)C(=O)O)c1
Second: CCOc1cccc(-c2nc3ccc(C(=O)O)cc3c(=O)[nH]2)c1OCC
The melting point of the first is lower: 131 to 132 °C for the first, greater than 320 °C for the second.

First: O=C1NC(=O)c2c1cc1ccc3c(c1c2-c1ccc(C(F)(F)F)cc1)OCO3
Second: O=C1CCC(N2C(=O)c3cccc(NC(=O)c4cccc(C(F)(F)F)c4)c3C2=O)C(=O)N1 (stereo not given)
The melting point of the first is higher: 304 to 306 °C for the first, 257 to 259 °C for the second.

First: CC(=O)OCC(=O)NCc1cccc(-c2csc(N=C(N)NC(=O)COC(C)=O)n2)n1
Second: NCc1cccc(CNC(N)=O)c1
The melting point of the first is higher: 148 to 151 °C for the first, 127 to 129 °C for the second.

`CCCCCCCCCCCCCCCCCCOc1ccc(OCCCc2ccccc2)c(C(=O)O)c1` and `CCCCCCCCC#CCC#CCC#CCCCC(=O)O` cannot be ordered by melting point: 68 to 70 °C for the first, 69 to 70 °C for the second.

First: CC(C)(C)OC(=O)CN1CCN(CC(=O)OC(C)(C)C)C1=O
Second: CCOP(=O)(CNC(=O)OC(c1ccccc1)c1cc(C(C)(C)C)c(O)c(C(C)(C)C)c1)OCC (stereo not given)
The melting point of the first is lower: 100 to 102 °C for the first, 196 to 197 °C for the second.

First: Cc1ccc(S(=O)(=O)OCCN(CCOS(=O)(=O)c2ccc(C)cc2)S(=O)(=O)c2ccc(C)cc2)cc1
Second: Cc1ccc(-c2csc3nc(C)c(CCCl)c(=O)n23)cc1
The melting point of the first is lower: 85 to 87 °C for the first, 152 to 165 °C for the second.

Compared with `C/C(=C\c1ccc(C(=O)O)cc1)c1ccc2c(c1)C(C)(C)CC(=O)C2(C)C`, `CCOCC1(C)CCCSc2cc(/C=C/c3ccc(C(=O)O)cc3)ccc21` (stereo not given) is lower in melting point: 249 to 250 °C for the first, 186 to 187 °C for the second.

First: CCCN(CCC)Cc1nnc(-c2ncn3c2CN(C)C(=O)c2c-3ccc(F)c2Cl)o1
Second: CCCc1c(CSc2nnc(SCc3ccc(OC(C)C(=O)O)cc3)s2)ccc(C(C)=O)c1O (stereo not given)
The melting point of the first is lower: 128 to 130 °C for the first, 138 °C for the second.

Compared with `CC(=O)N[C@@H](C)c1ccc(CO)cc1`, `C=CCN1C(=O)C(O)(CC(=O)N(C)C)c2cc(CO)ccc21` (stereo not given) is higher in melting point: 103 to 104 °C for the first, 125 °C for the second.

`O=C1OC(COc2ccccc2)CN1CCO` (stereo not given) and `Cn1ccc(C(=O)c2ccccc2)c1` cannot be ordered by melting point: 89 to 91 °C for the first, 90 to 93 °C for the second.

Compared with `C=C(c1ccccc1)c1ccc(N)c(N)c1`, `CC(=O)Nc1ccc(Sc2c(N)cc(C(=O)O)cc2S(N)(=O)=O)cc1` is higher in melting point: 109 to 110 °C for the first, 207 °C for the second.

Compared with `Nc1cc(-n2cccc2)ccc1Nc1cccc(-c2ccccn2)c1`, `CS(=O)(=O)c1cccc(-n2c(=O)n(Cc3ccncc3)c(=O)c3cccnc32)c1` is higher in melting point: 135 to 140 °C for the first, 254 to 256 °C for the second.

Compared with `CCOC(=O)C1=C(C)NC(C(OCC)OCC)=C(C(=O)OCC)C1c1ccccc1C(F)(F)F` (stereo not given), `CCCCc1nc(-n2cccc2)c(C(=O)OCC)[nH]1` is lower in melting point: 82 to 83 °C for the first, 74 to 77 °C for the second.

First: COC(=O)c1cc2c(I)cccc2cn1
Second: CCOC(=O)c1ccc2nc(N)oc2c1
The melting point of the first is lower: 165 to 167 °C for the first, 211 to 212 °C for the second.

First: O=C(c1ccc(Cl)cc1)N1CCC(=Cc2ccc(C3=NCCO3)cc2F)CC1
Second: CC1(Oc2ccc(CC(=O)c3ccc4c(c3)CCC4)cc2)CCCC1C(=O)O (stereo not given)
The melting point of the first is lower: 150 to 152 °C for the first, 191 to 193 °C for the second.

First: COC(=O)c1cc(C(O)(C(F)(F)F)C(F)(F)F)ccc1NS(C)(=O)=O
Second: Cc1ccc(C(=O)CCl)cc1S(N)(=O)=O
The melting point of the first is lower: 147 to 148 °C for the first, 166 °C for the second.

Compared with `CCOC(=O)c1[nH]cc2c1NC1=C(C(=O)CCC1)C2c1ccc(Sc2nc3ccc(F)c(F)c3[nH]2)o1` (stereo not given), `CC1(C)CC(=O)Nc2cc3nc(-c4ccncc4)[nH]c3cc21` is higher in melting point: 144 to 148 °C for the first, 201 to 202 °C for the second.

Compared with `Cn1nnnc1-c1cn(C)c2cc(Br)ccc2c1=O`, `Oc1nc2cc(F)ccc2n2cnnc12` is higher in melting point: 292 to 294 °C for the first, greater than 300 °C for the second.

First: CC(=O)N(c1ccc(N2CCN(C)CC2)cc1)c1ncc2c(n1)S/C(=C/c1cn(C(C)=O)c3ccccc13)C(=O)N2
Second: Cn1cc(-c2cc(-c3cnc4[nH]ccc4c3)ccn2)n(-c2ccc(C(C)(C)C#N)cc2)c1=O
The melting point of the first is higher: 289 to 292 °C for the first, 248 °C for the second.

Compared with `O=[N+]([O-])C1=C2N(Cc3ccc(Cl)nc3)CCN2C2CCCC1O2` (stereo not given), `O=[N+]([O-])c1cn(-c2cncc(F)c2)nc1Cl` is lower in melting point: 175 °C for the first, 110 to 111 °C for the second.

First: COC(=O)CC1=C(C)Cc2cc(F)c(F)cc21
Second: O=C1Cc2cc(F)ccc2Sc2ccccc21
The melting point of the first is lower: 86 to 90 °C for the first, 98 to 100 °C for the second.

Compared with `Cc1ccc(NC(=O)c2cccc(C(F)(F)F)c2)cc1-c1ccc2scnc2c1`, `Cc1cc([N+](=O)[O-])c(C)cc1SCc1cccc(C(F)(F)F)c1` is lower in melting point: 90 to 93 °C for the first, 85 to 87 °C for the second.

Compared with `COc1cc(Nc2nccc(-c3ccc4c(c3)CCCC4)n2)cc(OC)c1OC`, `CNC(=O)/C(=N/OC)c1ccccc1COc1cccc(SC)n1` is lower in melting point: 150 to 151 °C for the first, 130 to 132 °C for the second.

First: CC(N)=CC(=O)CS(=O)(=O)N(C)C
Second: C=Cc1c(C(=O)O)cccc1[N+](=O)[O-]
The melting point of the first is lower: 137 to 140 °C for the first, 166 to 167 °C for the second.

First: COc1nc(NC(=O)NS(=O)(=O)c2ccccc2OC(F)F)nc(C2CC2)n1
Second: O=C(Cc1ccsc1)N[C@H]1C[C@H](C(=O)O)Nc2cc(Cl)cc(Cl)c21 (relative stereo)
The melting point of the first is lower: 121 to 124 °C for the first, 198 to 200 °C for the second.

Compared with `Cc1c(Cl)cnc(N)c1F`, `Cn1c(=O)[nH]c(N2CCc3ccccc3CC2)c(C#N)c1=O` is higher in melting point: 136 to 138 °C for the first, greater than 200 °C for the second.
